Laboratory results from patent US20190290710A1, “USE OF GLUC[…] TO ENHANCE RECOMBINANT ADENO-[…] YIELD” (priority 2016, published 2019).
Where two headings read alike, the source gives them in different places.

Legend:
[1] = test system: HeLa host cell line; type: cell-based
Description: A number of cell culture additives including metals, trace supplements, salts, and others, were tested for their ability to increase production of recombinant adeno-associated virus vector (rAAV) by a HeLa host cell line.

[2] = test system: HeLa host cell line; test: rAAV yield by qPCR, HeLa host cell line in shaker flasks, glucocorticoid analogs; type: cell-based; conditions: shaker flask, 0.1 and 1 μM, 4 days, FIG. 2
Description: FIG. 2 is a bar graph depicting the effect of glucocorticoid analogs on rAAV production from a HeLa producer cell line cultured in a shaker flask. Hydrocortisone (hydr), predinosolone (pred) and dexamethasone (dex) were added at the indicated concentrations and after 4 days rAAV yield (GC/ml) was measured by qPCR. Each value represents the mean of two independent experiments.
DNase-resistant particles (DRP) can be quantified by real-time quantitative polymerase chain reaction (qPCR) (DRP-qPCR) in a thermocycler (for example, an iCycler iQ 96-well block format thermocycler (Bio-Rad, Hercules, Calif.)). Samples containing rAAV particles are incubated in the presence of DNase I (100 U/ml; Promega, Madison, Wis.) at 37° C. for 60 min, followed by proteinase K (Invitrogen, Carlsbad, Calif.) digestion (10 U/ml) at 50° C. for 60 min, and then denatured at 95° C. for 30 min. The primer-probe set used should be specific to a non-native portion of the rAAV vector genome, for example, the poly(A) sequence of the protein of interest. […]
Stock solutions of dexamethasone (dex), prednisolone (pred), and hydrocortisone (hydr) dissolved in DMSO were added to the cell culture to final concentrations of 0.1 and 1 μM. After 4 days, rAAV yield was determined by measuring both the secreted (extracellular) and total rAAV in the cell culture harvest by qPCR.

## [Cu] [copper]
[1]; copper concentration increased from 0.1 μM to 10 μM
  impact on rAAV yield: No or minimal impact

## NCCCNCCCCNCCCN [spermine]
[1]
  effect on rAAV yield: negative effect

## [Mg+2] [magnesium]
[1]; magnesium concentration increased from 1 mg/L to 30 mg/L
  impact on rAAV yield: slightly negative impact

## C[C@]12C=CC(=O)C=C1CC[C@@H]1[C@@H]2[C@@H](O)C[C@@]2(C)[C@H]1CC[C@]2(O)C(=O)CO [prednisolone]
[2]
  rAAV yield (extracellular and total): increased rAAV yield

## NCCCCN [putrescine]
[1]
  effect on rAAV yield: negative effect

## [Fe] [iron]
[1]; iron concentration increased from 0.1 mg/L to 10 mg/L
  impact on rAAV yield: No or minimal impact

## [Ca+2] [calcium]
[1]; calcium concentrations higher than 0.19 g/L
  media precipitation: causing media precipitation
[1]; supplementation with 0.19 g/L of calcium
  impact on rAAV yield: minimal impact

## C[C@]12CCC(=O)C=C1CC[C@@H]1[C@@H]2[C@@H](O)C[C@@]2(C)[C@H]1CC[C@]2(O)C(=O)CO [hydrocortisone]
[2]
  rAAV yield (extracellular and total): increased rAAV yield
